Measured values: US20140288044A1, “COMPOSITIONS AND THERAPEUTIC USES OF IKK-RELATED KINASE EPSILON AND TANKBINDING KINASE 1 INHIBITORS” (Alzheimer's Institute of America, Inc., priority 2011, published 2014)
Where two headings read alike, the source gives them in different places.

Assays:
[1] = target: T1, IKKε (Homo sapiens, UniProt Q14164); assay: In-vitro IKKε kinase assay (radiolabelled ATP, filterplate); assay type: biochemical
T1 construct: His-tag (in-house Sf9 preparation) or GST-tag (purchased Invitrogen preparation); these are alternatives, not both on one protein; host or cells: Sf9 cells
T1 sequence (Q14164 1-716): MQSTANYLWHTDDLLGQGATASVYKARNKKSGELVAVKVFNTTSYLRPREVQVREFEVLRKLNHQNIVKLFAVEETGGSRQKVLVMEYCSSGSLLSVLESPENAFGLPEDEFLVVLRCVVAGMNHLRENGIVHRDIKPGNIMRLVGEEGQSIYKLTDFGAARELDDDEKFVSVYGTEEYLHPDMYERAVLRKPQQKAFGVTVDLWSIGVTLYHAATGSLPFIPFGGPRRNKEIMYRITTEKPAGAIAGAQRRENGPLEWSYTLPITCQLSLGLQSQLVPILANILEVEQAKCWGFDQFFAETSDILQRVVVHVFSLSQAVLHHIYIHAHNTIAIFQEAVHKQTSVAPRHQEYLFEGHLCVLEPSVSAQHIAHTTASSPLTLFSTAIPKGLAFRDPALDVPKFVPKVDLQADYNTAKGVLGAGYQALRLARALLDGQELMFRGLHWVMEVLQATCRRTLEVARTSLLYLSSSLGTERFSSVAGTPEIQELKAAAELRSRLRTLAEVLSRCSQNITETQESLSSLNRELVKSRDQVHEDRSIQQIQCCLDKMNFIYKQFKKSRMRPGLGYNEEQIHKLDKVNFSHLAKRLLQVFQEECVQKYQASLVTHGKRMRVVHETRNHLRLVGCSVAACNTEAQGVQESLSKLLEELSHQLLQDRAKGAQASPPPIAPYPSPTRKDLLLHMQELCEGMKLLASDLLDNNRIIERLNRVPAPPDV
Procedure, shortened: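 His-tagged IKKε from Sf9 cells or GST-tagged IKKε, with myelin basic protein, casein or dephosphorylated casein as substrate and 32 μM ATP (2× Km) plus [γ^33]ATP. "Normal" assay used 0.1 μg/ml enzyme; "sensitized" used 0.015 μg/ml with dephosphorylated casein only. Stopped after 30–45 min with phosphoric acid; P-81 filter counts normalized to DMSO after background subtraction.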

[2] = system: IKKε-mediated phosphorylation of IRF3; assay: ELISA for in-situ phosphorylation of IRF3 (phospho-Ser396) in HEK293T cells cotransfected with IRF3 and IKKε; assay type: cell-based; details: Homo sapiens, HEK-293T, 20 h, HEK293T cells, 20 hours, read-out: IC50, in-situ IKKε-mediated phosphorylation of IRF3
Procedure: HEK293T cells were cotransfected in a 10-cm dish with IRF3 and IKKε expression plasmids using Lipofectamine 2000 (Invitrogen, Carlsbad, Calif.). The following day, cells were replated at 20,000 per well in 96-well plates and treated with test compounds (compounds according to Formulae I and/or II) for 20 hours. Cell lysates were prepared and analyzed using an ELISA for phospho-Ser396 (anti-IRF3 capture antibody, Santa Cruz Biotechnology, Inc., Santa Cruz, Calif.; anti-p-Ser396 IRF3 detection antibody, Cell Signaling, Danvers, Mass.). pIRF3 levels in compound treated cells were normalized to DMSO treated cells (no compound). Cell viability was assayed in a parallel set of plates to monitor cytotoxic effects of the test compounds (CellTiter-Glo, Promega, Inc., Madison, Wis.). TBK1 activity was tested by Western blotting using a phospho-specific IRF7 antibody. Similar to above, HEK293T cells were transfected with IRF7 and TBK1 expression plasmids. Cells were seeded in 12-well plates at 150,000 per well and treated overnight with test compounds. Protein lysates were prepared and processed for Western blotting followed by detection using a phosphor-Ser477/Ser479 IRF7 antibody (BD Biosciences, San Jose, Calif.)

[3] = "sensitized" assay, read-out: IC50, inhibition of the kinase activity of IKKε
[4] = in-vitro IKKε kinase inhibition assays, given as 0.005 μM (5 nM), read-out: IKKε kinase inhibitory activity (IC50 value)
[5] = range given from about 1 μM to about 250 nM

Compound | IC50 [1, 3] [nM] | IC50 [1, 4] [nM] | IC50 [2, 5] [nM] | IC50 [2] [nM]
CN(C)C1CCN(c2ccc(Nc3nccc(-c4ccc(OC5CCOCC5)c(C#N)c4)n3)nn2)C1 (stereo not shown) [Example Compound 87, 5-[2-({6-[3-(Dimethylamino)pyrrolidin-1-yl]pyridazin-3-yl}amino)pyrimidin-4-yl]-2-(tetrahydro-2H-pyran-4-yloxy)benzonitrile] | < 5 | < 5 | 250 to 1000 | 
N#Cc1cc(-c2ccnc(Nc3ccc(-c4cccnc4)nc3)n2)ccc1OC1CCOCC1 [Example Compound 79, 5-[2-(2,3′-Bipyridin-5-ylamino)pyrimidin-4-yl]-2-(tetrahydro-2H-pyran-4-yloxy)benzonitrile] | < 5 | < 5 | 250 to 1000 | 
N#Cc1cc(-c2ccnc(Nc3ccc(N4CCCC4)nc3)n2)ccc1OC1CCOCC1 [Example Compound 5, 5-(2-{[6-(Pyrrolidin-1-yl)pyridin-3-yl]amino}pyrimidin-4-yl)-2-(tetrahydro-2H-pyran-4-yloxy)benzonitrile] | < 5 | < 5 |  | 100 to 250
CNCc1ccc(Nc2nccc(-c3ccc(OC4CCOCC4)c(C#N)c3)n2)cn1 [Example Compound 52, 5-[2-({6-[(Methylamino)methyl]pyridin-3-yl}amino)pyrimidin-4-yl]-2-(tetrahydro-2H-pyran-4-yloxy)benzonitrile] | < 5 | < 5 | 250 to 1000 | 
CC(=O)N(C)Cc1ccc(Nc2nccc(-c3ccc(OC4CCOCC4)c(C#N)c3)n2)cn1 [Example Compound 53, N-{[5-({4-[3-Cyano-4-(tetrahydro-2H-pyran-4-yloxy)phenyl]pyrimidin-2-yl}amino)pyridin-2-yl]methyl}-N-methylacetamide] |  | < 5 |  | 100 to 250
N#Cc1cc(-c2ccnc(Nc3ccnc(CO)c3)n2)ccc1OC1CCOCC1 [Example Compound 227, 5-(2-{[2-(Hydroxymethyl)pyridin-4-yl]amino}pyrimidin-4-yl)-2-(tetrahydro-2H-pyran-4-yloxy)benzonitrile] | < 5 |  |  | < 100
COC(=O)c1cc(Nc2nccc(-c3ccc(OC4CCOCC4)c(C#N)c3)n2)ccn1 [Example Compound 230, Methyl 4-({4-[3-cyano-4-(tetrahydro-2H-pyran-4-yloxy)phenyl]pyrimidin-2-yl}amino)pyridine-2-carboxylate] | < 5 |  |  | 100 to 250
COCCNc1cc(Nc2nccc(-c3ccc(OC4CCN(C(=O)CO)CC4)c(C#N)c3)n2)ccn1 [Example Compound 238, 2-{[1-(Hydroxyacetyl)piperidin-4-yl]oxy}-5-[2-({2-[(2-methoxyethyl)amino]pyridin-4-yl}amino)pyrimidin-4-yl]benzonitrile] | < 5 |  | 250 to 1000 | 
CN(Cc1ccc(Nc2nccc(-c3ccc(OC4CCOCC4)c(C#N)c3)n2)cn1)C(=O)CO [Example Compound 58, N-{[5-({4-[3-Cyano-4-(tetrahydro-2H-pyran-4-yloxy)phenyl]pyrimidin-2-yl}amino)pyridin-2-yl]methyl}-2-hydroxy-N-methylacetamide] |  | < 5 |  | 100 to 250
N#Cc1cc(-c2ccnc(Nc3ccnc(-c4cn[nH]c4)c3)n2)ccc1OC1CCOCC1 [Example Compound 83, 5-(2-{[2-(1H-Pyrazol-4-yl)pyridin-4-yl]amino}pyrimidin-4-yl)-2-(tetrahydro-2H-pyran-4-yloxy)benzonitrile] | < 5 | < 5 |  | 100 to 250
CN(CCS(C)(=O)=O)Cc1ccc(Nc2nccc(-c3ccc(OC4CCOCC4)c(C#N)c3)n2)cn1 [Example Compound 207, 5-(2-{[6-({Methyl[2-(methylsulfonyl)ethyl]amino}methyl)pyridin-3-yl]amino}pyrimidin-4-yl)-2-(tetrahydro-2H-pyran-4-yloxy)benzonitrile] | < 5 |  | 250 to 1000 | 
COc1cc(Nc2nccc(-c3ccc(O[C@@H]4CCN(C(=O)CO)C4)c(C#N)c3)n2)ccn1 [Example Compound 225, 2-{[(3R)-1-(Hydroxyacetyl)pyrrolidin-3-yl]oxy}-5-{2-[(2-methoxypyridin-4-yl)amino]pyrimidin-4-yl}benzonitrile] | < 5 |  |  | 1000 to 5000
CN(C)c1ccc(Nc2nccc(-c3ccc(NC(=O)C4CC4)c(C#N)c3)n2)cn1 [Example Compound 138, N-[2-Cyano-4-(2-{[6-(dimethylamino)pyridin-3-yl]amino}pyrimidin-4-yl)phenyl]cyclopropanecarboxamide] | < 5 | < 5 |  | < 100
CN(Cc1ccc(Nc2nccc(-c3ccc(OC4CCOCC4)c(C#N)c3)n2)cn1)C(=O)C1(N)CC1 [Example Compound 60, 1-Amino-N-{[5-({4-[3-cyano-4-(tetrahydro-2H-pyran-4-yloxy)phenyl]pyrimidin-2-yl}amino)pyridin-2-yl]methyl}-N-methylcyclopropanecarboxamide] |  | < 5 |  | 100 to 250
N#Cc1cc(-c2ccnc(Nc3ccnc(N4CCN(CCO)CC4)c3)n2)ccc1OC1CCOCC1 [Example Compound 42, 5-[2-({2-[4-(2-Hydroxyethyl)piperazin-1-yl]pyridin-4-yl}amino)pyrimidin-4-yl]-2-(tetrahydro-2H-pyran-4-yloxy)benzonitrile] | < 5 | < 5 |  | < 100
Cn1cc(-c2cc(Nc3nccc(-c4ccc(O[C@@H]5CCN(C(=O)CO)C5)c(C#N)c4)n3)ccn2)cn1 [Example Compound 126, 2-{[(3R)-1-(Hydroxyacetyl)pyrrolidin-3-yl]oxy}-5-(2-{[2-(1-methyl-1H-pyrazol-4-yl)pyridin-4-yl]amino}pyrimidin-4-yl)benzonitrile] |  | < 5 |  | 1000 to 5000
N#Cc1cc(-c2ccnc(Nc3ccc(N4CCOCC4)nn3)n2)ccc1OC1CCOCC1 [Example Compound 88, 5-(2-{[6-(Morpholin-4-yl)pyridazin-3-yl]amino}pyrimidin-4-yl)-2-(tetrahydro-2H-pyran-4-yloxy)benzonitrile] | < 5 | < 5 | 250 to 1000 | 
N#Cc1cc(-c2ccnc(Nc3ccc(C(=O)N4CCN(CCO)CC4)s3)n2)ccc1OC1CCOCC1 [Example Compound 163, 5-{2-[(5-{[4-(2-Hydroxyethyl)piperazin-1-yl]carbonyl}thiophen-2-yl)amino]pyrimidin-4-yl}-2-(tetrahydro-2H-pyran-4-yloxy)benzonitrile] |  |  |  | 100 to 250
Cc1ccc(Nc2nccc(-c3ccc(OC4CCN(C(=O)[C@@H](C)O)CC4)c(C#N)c3)n2)cn1 [Example Compound 129, 2-({1-[(2R)-2-Hydroxypropanoyl]piperidin-4-yl}oxy)-5-{2-[(6-methylpyridin-3-yl)amino]pyrimidin-4-yl}benzonitrile] |  |  |  | 1000 to 5000
N#Cc1cc(-c2ccnc(Nc3ccnc(N4CCC[C@H]4CO)c3)n2)ccc1OC1CCOCC1 [Example Compound 180, 5-[2-({2-[(2S)-2-(Hydroxymethyl)pyrrolidin-1-yl]pyridin-4-yl}amino)pyrimidin-4-yl]-2-(tetrahydro-2H-pyran-4-yloxy)benzonitrile] |  |  | 250 to 1000 | 
COC1CN(C(=O)Cc2csc(Nc3nccc(-c4ccc(OC5CCOCC5)c(C#N)c4)n3)n2)C1 [Example Compound 105, 5-[2-({4-[2-(3-Methoxyazetidin-1-yl)-2-oxoethyl]-1,3-thiazol-2-yl}amino)pyrimidin-4-yl]-2-(tetrahydro-2H-pyran-4-yloxy)benzonitrile] |  |  |  | 1000 to 5000
